Patent US20050227933A1 (priority 2001, published 2005)

Legend:
[1] = system: bacterial cells expressing an adenine DNA methyltransferase; format: cell-based, Caulobacter
Brucella abortus = format: cell-based
dam Methylase (E. coli) = dam Methylase (E. coli) (Escherichia coli, UniProt P0AEE8); format: biochemical; conditions: 100 µM
[2] = target: dcm Methyltransferase (Hhal) (Haemophilus parahaemolyticus, UniProt P05102); format: biochemical, Hemophilus hemolyticus; conditions: at 500 μM
[3] = system: Agrobacterium tumefaciens; format: cell-based; conditions: read-out: IC50 cell growth inhibition
Helicobacter pylori = format: cell-based; conditions: read-out: IC50 cell growth inhibition
[4] = system: Caulobacter crescentus (CB15N); format: cell-based; conditions: 30° C., growth monitored at 630 nm up to 22 hours; read-out: IC50 (μM) Caulobacter crescentus Cell Growth
Brucella abortus CcrM = format: biochemical
[5] = system: Bacillus subtilis (ATCC #33234); format: cell-based; conditions: 37° C., growth monitored up to 7.5 hours; read-out: IC50 (μM) Bacillus Subtilis Cell Growth
Caulobacter cresentus = experiment: microbe, parasite or virus in culture; format: cell-based; conditions: read-out: IC50 cell growth inhibition
Bacillus subtilis = experiment: microbe, parasite or virus in culture; format: cell-based; conditions: read-out: IC50 cell growth inhibition
[6] = system: adenine DNA methyltransferase; format: biochemical

Chain of dam Methylase (E. coli) (P0AEE8 whole entry): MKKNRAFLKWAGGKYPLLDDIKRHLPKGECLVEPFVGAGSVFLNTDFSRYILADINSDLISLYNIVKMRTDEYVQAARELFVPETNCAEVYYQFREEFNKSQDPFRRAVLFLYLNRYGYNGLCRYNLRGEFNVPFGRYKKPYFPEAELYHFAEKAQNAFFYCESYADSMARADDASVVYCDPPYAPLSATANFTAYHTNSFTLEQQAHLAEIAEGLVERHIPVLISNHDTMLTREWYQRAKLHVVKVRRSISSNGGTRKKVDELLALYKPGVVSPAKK
Chain of dcm Methyltransferase (Hhal) (P05102 whole entry): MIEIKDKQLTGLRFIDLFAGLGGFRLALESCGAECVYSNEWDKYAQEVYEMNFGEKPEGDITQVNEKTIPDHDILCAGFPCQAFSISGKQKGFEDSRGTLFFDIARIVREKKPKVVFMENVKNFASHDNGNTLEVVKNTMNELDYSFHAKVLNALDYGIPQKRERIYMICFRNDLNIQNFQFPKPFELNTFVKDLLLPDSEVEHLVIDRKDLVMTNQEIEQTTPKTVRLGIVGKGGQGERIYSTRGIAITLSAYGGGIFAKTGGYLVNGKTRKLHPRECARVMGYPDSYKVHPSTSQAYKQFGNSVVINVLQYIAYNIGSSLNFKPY

Compound	IC50 [4]	% reaction Brucella abortus CcrM Activity (Brucella abortus CcrM)	IC50 [5]	further results
c1ccc(B(OCCNc2ncnc3[nH]cnc23)c2ccccc2)cc1	–	–	–	concentration found to inhibit cell growth [1]: < 50 µM
6-N-(diphenylborinic ester)-ethyl-9-(2-(2-(2-hydroxyethoxy)ethoxy)ethyl)-adenine [Compound 3d]	–	–	–	effect on cell growth (Brucella abortus): Cell growth inhibited from start; inhibition of dam Methylase (dam Methylase (E. coli)): Complete inhibition; inhibition of dcm Methyltransferase [2]: No inhibition at all
6-N-(diphenylborinic ester)-ethyl-9-(2-(4-morpholinyl)-ethyl)-adenine [Compound 3b]	–	–	–	effect on cell growth (Brucella abortus): Complete cell death after 12 hours; IC50 [3]: 25 µM; inhibition of dam Methylase (dam Methylase (E. coli)): Complete inhibition; inhibition of dcm Methyltransferase [2]: No inhibition at all
6-N-(diphenylborinic ester)-ethyl-9-(3-(N-phthaloyl)-aminopropyl)-adenine [Compound 3c]	–	–	–	effect on cell growth (Brucella abortus): Cell growth inhibited from start; IC50 [3]: 25 µM; inhibition of dam Methylase (dam Methylase (E. coli)): Complete inhibition; inhibition of dcm Methyltransferase [2]: No inhibition at all
6-N-(diphenylborinic ester)-ethyl-9-(ethyl-2-acrylate)-methyl-adenine [Compound 3e]	–	–	–	effect on cell growth (Brucella abortus): Cell growth inhibited from start; IC50 (Helicobacter pylori): 25 µM; inhibition of dam Methylase (dam Methylase (E. coli)): Complete inhibition; inhibition of dcm Methyltransferase [2]: No inhibition at all
6-N-(diphenylborinic ester)-ethyl-adenine [Compound 3a]	–	–	–	effect on cell growth (Brucella abortus): Almost complete cell death after 12 hours; IC50 [3]: > 100 µM; inhibition of dam Methylase (dam Methylase (E. coli)): Complete inhibition; inhibition of dcm Methyltransferase [2]: No inhibition at all
c1ccc(B(Oc2cccc3cccnc23)c2ccccc2)cc1 [(11i), diphenylborinic acid 8-hydroxyquiniline ester]	> 100 µM	–	–	–
Fc1ccc(B(Oc2cccc3cccnc23)c2ccc(F)cc2)cc1 [(11ii), Di-(4-fluorophenyl)borinic acid 8-hydroxyguinoline ester]	23 µM	61%	–	–
Clc1ccc(B(Oc2cccc3cccnc23)c2ccc(Cl)cc2)cc1 [(11iii), Di-(4-chlorophenyl)borinic acid 8-hydroxyquinoline ester]	16 µM	61%	–	–
Clc1cccc(B(Oc2cccc3cccnc23)c2cccc(Cl)c2)c1 [(11iv), Di-(3-chlorophenyl)borinic acid 8-hydroxyguinoline ester]	10 µM	–	< 10 µM	–
Fc1cc(Cl)ccc1B(Oc1cccc2cccnc12)c1ccc(Cl)cc1F [(11v), Di-(4-chloro-2-fluorophenyl)borinic acid 8-hydroxyquinoline ester]	26 µM	–	< 10 µM	–
c1cnc2c(OB(c3ccc4c(c3)OCO4)c3ccc4c(c3)OCO4)cccc2c1 [(11vi), Di-(3,4-methylenedioxyphenyl)borinic acid 8-hydroxyquinoline ester]	32 µM	42%	28 µM	–
COc1ccc(B(Oc2cccc3cccnc23)c2ccc(OC)cc2)cc1 [(11vii), Di-(4-methoxyphenyl)borinic acid 8-hydroxyquinoline ester]	24 µM	–	20 µM	–
c1csc(B(Oc2cccc3cccnc23)c2cccs2)c1 [(11viii), Di-(2-thienyl)borinic acid 8-hydroxyguinoline ester]	> 100 µM	74%	28 µM	–
Cc1ccc2cccc(OB(c3ccc(F)cc3)c3ccc(F)cc3)c2n1 [(12ii), Di-(p-fluorophenyl)borinic acid 8-hydroxyquinaldine ester]	56 µM	17%	> 100 µM	–
Cc1ccc2cccc(OB(c3ccc(Cl)cc3)c3ccc(Cl)cc3)c2n1 [(12iii), Di-(p-chlorophenyl)borinic acid 8-hydroxyguinaldine ester]	5 µM	40%	24 µM	–
COc1ccc(B(Oc2cccc3ccc(C)nc23)c2ccc(OC)cc2)cc1 [(12vii), Di-(4-methoxyphenyl)borinic acid 8-hydroxyquinaldine ester]	24 µM	56%	> 100 µM	–

Compound	IC50 [4]	% reaction Brucella abortus CcrM Activity (Brucella abortus CcrM)	IC50 [5]	further results
Fc1ccc(B(Oc2ccc(Cl)c3cccnc23)c2ccc(F)cc2)cc1 [(13ii), Di-(p-fluorophenyl)borinic acid 5-chloro-8-hydroxyquinaline ester]	7 µM	55%	27 µM	–
Clc1ccc(B(Oc2ccc(Cl)c3cccnc23)c2ccc(Cl)cc2)cc1 [(13iii), Di-(p-chlorophenyl)borinic acid 5-chloro-8-hydroxyquinaline ester]	6 µM	81%	< 10 µM	–
Clc1ccc(OB(c2ccc3c(c2)OCO3)c2ccc3c(c2)OCO3)c2ncccc12 [(13vi), Di-(3,4-methylenedioxyphenyl)borinic acid 5-chloro-8-hydroxyquinoline ester]	7 µM	–	> 100 µM	–
COc1ccc(B(Oc2ccc(Cl)c3cccnc23)c2ccc(OC)cc2)cc1 [(13vii), Di-(4-methoxyphenyl)borinic acid 5-chloro-8-hydroxyquinoline ester]	7 µM	–	36 µM	–
O=[N+]([O-])c1ccc(OB(c2ccc3c(c2)OCO3)c2ccc3c(c2)OCO3)c2ncccc12 [(14vi), Di-(3,4-methylenedioxyphenyl)borinic acid 8-hydroxy-5-nitroquinoline ester]	7 µM	21%	> 100 µM	–
c1ccc(B(OCc2ccccn2)c2ccccc2)cc1 [(16i), Diphenylborinic acid pyridine-2-methanol]	> 100 µM	93%	> 100 µM	–
NCCOB(c1ccc(F)cc1)c1ccc(F)cc1 [(19ii), Di-(4-fluorophenyl)borinic acid ethanolamine ester]	85 µM	8%	–	–
NCCOB(c1ccc(Cl)cc1)c1ccc(Cl)cc1 [(19iii), Di-(4-chlorophenyl)borinic acid ethanolamine ester]	17 µM	–	–	–
Fc1ccc([B-]2(c3ccc(F)cc3)Oc3cccc4ccc[n+]2c34)cc1 [Compound (1), di-(p-fluorophenyl)borinic acid 8-hydroxyquiniline ester]	–	–	–	IC50 (Caulobacter cresentus): 23 µM; IC50 (Bacillus subtilis): 1.4 µM
Clc1ccc([B-]2(c3ccc(Cl)cc3)Oc3cccc4ccc[n+]2c34)cc1 [Compound (2), di-(p-chlorophenyl)borinic acid 8-hydroxyquiniline ester]	–	–	–	IC50 (Caulobacter cresentus): 1.6 µM; IC50 (Bacillus subtilis): 7 µM
c1ccc([B-]2(c3ccccc3)Oc3cccc4ccc[n+]2c34)cc1 [Compound (3), diphenylborinic acid 8-hydroxyquiniline ester]	–	–	–	IC50 (Caulobacter cresentus): > 100 µM
Fc1ccc([B-]2(c3ccc(F)cc3)[NH2+]CCO2)cc1 [Compound (4), di-(p-fluorophenyl)borinic acid ethanolamine ester]	–	–	–	IC50 (Caulobacter cresentus): 8.5 µM; IC50 (Bacillus subtilis): 3.4 µM
Clc1ccc([B-]2(c3ccc(Cl)cc3)[NH2+]CCO2)cc1 [Compound (5), di-(p-chlorophenyl)borinic acid ethanolamine ester]	–	–	–	IC50 (Caulobacter cresentus): 1.7 µM; IC50 (Bacillus subtilis): 3.2 µM
NCCNc1ncnc2[nH]cnc12 [compound (8)]	–	–	–	inhibitory activity [6]: relatively low (mM range)
Diphenylborinic acid 2-amino-1-phenylpropanol [(17i)]	> 100 µM	114%	> 100 µM	–
Diphenylborinic acid (S)-(+)-pyrrolidine-2-methanol [(18i)]	> 100 µM	81%	> 100 µM	–
